Ki data for one compound are collected here from article PMC9724349, “Discovery of a pyrano[2,3-b]pyridine derivative YX-2102 as a cannabinoid receptor 2 agonist for alleviating lung fibrosis” (Journal of Translational Medicine, 2022).

For this test, the target named is T1, cannabinoid receptor 2 (CB2R) (Homo sapiens, UniProt P34972).
T1 construct: gene CNR2
Kind of test: radioligand binding assay, [3H]CP […] displacement.

T1 sequence (P34972 whole entry): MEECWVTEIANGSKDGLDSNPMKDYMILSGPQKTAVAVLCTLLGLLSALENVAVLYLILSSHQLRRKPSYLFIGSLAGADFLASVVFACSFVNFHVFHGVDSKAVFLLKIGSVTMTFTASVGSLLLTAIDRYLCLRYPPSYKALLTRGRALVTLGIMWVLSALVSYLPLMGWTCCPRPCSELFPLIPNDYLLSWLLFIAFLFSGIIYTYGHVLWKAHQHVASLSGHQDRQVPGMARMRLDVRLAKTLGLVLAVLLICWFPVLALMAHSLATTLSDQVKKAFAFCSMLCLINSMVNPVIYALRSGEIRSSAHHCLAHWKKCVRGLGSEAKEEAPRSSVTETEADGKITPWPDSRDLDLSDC

With `CCOC(=O)C1=CC(c2cccc(C)c2)C2CCC(CC(=O)c3ccccc3)OC2N1S(=O)(=O)c1ccc(C)cc1` (stereo not shown) [YX-2102], the inhibitory constant (Ki) amounted to 350 nM.
